This note sets out measurements from EPA's ToxValDB 9.5 (doi:10.2903/j.efsa.2009.1167).

One data set has as its system Canidae. The following applies: chronic, Dog Other.
In the next data set the test system is Mus musculus. The note with it: chronic; duration: 18 months; organ weight.
Setting [1] is: chronic, duration: 2 years, histopathology: nonneoplastic.
Setting [2] is: reproduction developmental, reproduction.

Usually NOAEL stands for the highest dose or exposure tested at which no adverse effect was seen.

Each structure is given as a SMILES string.

`CCCCC(C#N)(Cn1cncn1)c1ccc(Cl)cc1` (stereo not given) [Myclobutanil] registered an NOAEL in the data set on Rattus norvegicus (setting [1]) of 2.5 mg/kg-day.

The compound `CC(C)(C)C(O)C(Oc1ccc(Cl)cc1)n1cncn1` (stereo not given) [Triadimenol] showed an NOAEL in the data set with Canidae (duration: 2 years) of 4 mg/kg-day.

For the compound `CC(C)(C)C(O)(CCc1ccc(Cl)cc1)Cn1cncn1` (stereo not given) [Tebuconazole], in the data set on Canidae (histopathology: nonneoplastic), the NOAEL came out at 3 mg/kg-day.

As for `CC(C)(C)C(=O)C(Oc1ccc(Cl)cc1)n1cncn1` (stereo not given) [Triadimefon], the NOAEL amounted to 2 mg/kg-day in the data set on Rattus norvegicus (acute) and 3.4 mg/kg-day with Rattus norvegicus (subchronic, duration: 13 weeks).

For `CC(C)(C)[C@@H](O)/C(=C\c1ccc(Cl)cc1Cl)n1cncn1` [Diniconazole-M], the NOAEL turned out to be 5 mg/kg-day with Rattus norvegicus (setting [1]) and 5 mg/kg-day with Rattus norvegicus (developmental, development).

In the case of `Fc1ccc([C@@]2(Cn3cncn3)O[C@@H]2c2ccccc2Cl)cc1` [Epoxiconazole], the NOAEL in the data set with Mus musculus stood at 0.8 mg/kg-day; in the data set on Rattus norvegicus (setting [2]), 2.3 mg/kg-day.

Regarding `C[Si](Cn1cncn1)(c1ccc(F)cc1)c1ccc(F)cc1` [Flusilazole], the NOAEL in the data set on Canidae (duration: 1 years) was 0.2 mg/kg-day; in the data set on Rattus norvegicus (reproduction developmental, organ weight), 0.5 mg/kg-day.

On to `CC(C1CC1)C(O)(Cn1cncn1)c1ccc(Cl)cc1` (stereo not given) [Cyproconazole], for which the NOAEL in the data set on Rattus norvegicus (chronic, organ weight) is 2 mg/kg-day; with Rattus norvegicus (developmental, development), 2 mg/kg-day.

For the compound `CCCC1COC(Cn2cncn2)(c2ccc(Cl)cc2Cl)O1` (stereo not given) [Propiconazole], the NOAEL in the data set with Rattus norvegicus (developmental, development) is 30 mg/kg-day; with Rattus norvegicus (setting [2]), more than 2.8 mg/kg-day.
